One data set has as its target TRPV1 (Rattus norvegicus (Rat), UniProt O35433). Put plainly: Ca2+ fluorescence measurements in cultured rat dorsal root ganglia neurons (capsaicin-induced calcium uptake). The class given is cell-based. As to conditions: rat DRG neurons; for inhibition at 0.3 µM: DRG neuron.
Data set [1] concerns CCI-induced mechanical hyperalgesia. Put plainly: CCI-induced mechanical hyperalgesia (Randall-Selitto paw pressure). The class given is in vivo. As to conditions: rat CCI, 30 μmol/kg oral. How it is done:
CCI-Induced Mechanical Hyperalgesia
Male SD rats (Charles River, Italy) weighing 250 g were anaesthetized with sodium pentobarbital (60 mg/kg, intraperitoneal (i.p.), 0.1 ml/10 g) and, under a dissecting microscope, the right common sciatic nerve was exposed at the level of the mid thigh and, proximal to the trifurcation of the nerve; four ligatures (4/0 chromic silk, Ethicon) were loosely tied around it, at about 0.5 mm spacing, until they elicited a brief twitch in the respective hind, taking care to preserve epineural circulation. Sham-operated animals (sciatic exposure without ligation) were used as controls. 14 days after the surgery, mechanical hyperalgesia was assessed using an analgesimeter (Ugo Basile, Italy, Randall-Selitto analgesic apparatus). This device generated a mechanical force on the affected paw and the nociceptive threshold was defined as the force (in g) at which the rat withdraws the paw (with a cut-off of 450 g). Two baseline measurement values were obtained 75 and 45 min before the actual test. After the second baseline measurement, animals were randomly allocated to the different treatment groups. Paw pressure test was performed 0, 75, 120, 165, 210 and 300 min after the oral administration of the compounds. All tested compounds were orally administrated (30 μmol/kg/10 ml) to rats by gavage.

Data set [2] relates to CFA-induced tactile allodynia. Description: CFA-induced tactile allodynia in rats (von Frey filaments). As to conditions: rat, 30 μmol/kg oral. The class given is in vivo. How it is done:
CFA-Induced Tactile Allodynia in Rats
Male SD rats (Charles River, Italy) weighing 100 to 250 g were put into a clean plastic cage on an elevated glass plate for 30 min before the test. This lets the animals accommodate to their new environment before testing. Complete Freund's adjuvant (CFA, 50 μl) was injected into the plantar surface of the right hind paw. Tactile stimulation was performed with von Frey filaments (from 0.07 to 26 g). All antagonists were orally administered 22 hours after to the CFA administration. Von Frey filaments were applied 30, 60, 120, 180, 240, 300 and 360 min after compound administrations. Median 50% (EG50) threshold of von Frey filaments was calculated by using the up-down method as previously described. All tested compounds were suspended in 0.5% Methocel and 2.5% Tween80 and orally administrated (30 μmol/kg/10 ml) to rats by gavage 24 hours after the CFA treatment. CFA was injected into the plantar surface of a rat's hind paw at a fixed dose of 50 μl by the use of a micro syringe.

For data set [3], the system named is CFA-induced thermal hyperalgesia. Put plainly: CFA-induced thermal hyperalgesia in rats (Hargreaves' test). The class given is in vivo. Particulars: rat, 30 μmol/kg oral; read-out: reversal of CFA-induced thermal hyperalgesia (maximal reversal activity / % of reversion). The text has this:
CFA-Induced Thermal Hyperalgesia in Rats
This method was used for the determination of acute nociceptive thermal threshold and combines a chemical stimulus and heat for measuring pain sensitivity. Male SD rats (Charles River, Italy) weighing 100 to 250 gr. were used. Anti-hyperalgesic effects were investigated by using the Hargreaves' test. Complete Freund's Adjuvant (CFA; Sigma, USA) was used to induce thermal hyperalgesia. CFA contains killed Mycobacterium tuberculosis and is designed to provide continuous release of antigens necessary for stimulating a strong, persistent immune response. This effect causes the reduction of the hind paw withdrawal response latency induced by heat during the Hargreaves' test. Thermal stimulation was performed 30, 60, 120 and 180 (240 min only if needed) minutes after the oral administration of the antagonists. During the CFA-induced thermal hyperalgesia experiments two different solubilization protocols were used: when items presented an amino group, a pH=2 aqueous solution of HCl and 2.5% Tween80 was used; otherwise molecules were suspended in 0.5% Methocel and 2.5% Tween80. Compounds were orally administrated (30 μmol/kg/10 ml) to rats 24 hours after the CFA treatment. CFA was injected into the plantar surface of a rat's hind paw at a fixed dose of 50 μl by the use of a micro syringe.

Data set [4] can be described thus: Rectal temperature measurements in rats. The class given is in vivo. Particulars: rat, 10 μmol/Kg intraperitoneal. The method, then: Rectal Temperature Measurements in Rats
Body temperature was measured by a digital thermometer inserted at a depth of approximately 3 cm into the rectum of each animal (male SD rats, Charles River, Italy, 100 to 250 g). A pre-dose value of body temperature was measured prior to the administration of the test substance or vehicles. Animals were distributed among groups by the manual method to achieve the almost same mean values of body temperature of the groups based on the pre-dose value. All compounds were dissolved in 6% DMSO/6% Tween80 and then intraperitoneally (10 μmol/Kg/5 ml) administrated to rats.

[5] abbreviates: Table 1, formula IA-C, 300 nM against calcium uptake induced by 30 nM capsaicin, read-out: % inhibition at 300 nM.
Where [6] appears, read: capsaicin-induced calcium uptake, read-out: inhibition of the calcium uptake.
Where [7] appears, read: 300 nM, read-out: abolition of capsaicin response at 300 nM.
The mark [8] stands for this setting: Table 1, against capsaicin-evoked [Ca2+]i mobilization, read-out: IC50.
Setting [9] is: read-out: IC50 against capsaicin-evoked [Ca2+]i mobilization.

The values that follow come from patent US10233177B2, “TRPV1 vanilloid receptor antagonists with a bicyclic portion” (Serentrix LLC, priority 2010, dated 2019).

Each structure is given as a SMILES string. Read-outs that look alike come from different tables or passages of the source.

One may read the IC50 as the midpoint of a concentration-inhibition curve.

Sequence of TRPV1 (O35433 whole entry): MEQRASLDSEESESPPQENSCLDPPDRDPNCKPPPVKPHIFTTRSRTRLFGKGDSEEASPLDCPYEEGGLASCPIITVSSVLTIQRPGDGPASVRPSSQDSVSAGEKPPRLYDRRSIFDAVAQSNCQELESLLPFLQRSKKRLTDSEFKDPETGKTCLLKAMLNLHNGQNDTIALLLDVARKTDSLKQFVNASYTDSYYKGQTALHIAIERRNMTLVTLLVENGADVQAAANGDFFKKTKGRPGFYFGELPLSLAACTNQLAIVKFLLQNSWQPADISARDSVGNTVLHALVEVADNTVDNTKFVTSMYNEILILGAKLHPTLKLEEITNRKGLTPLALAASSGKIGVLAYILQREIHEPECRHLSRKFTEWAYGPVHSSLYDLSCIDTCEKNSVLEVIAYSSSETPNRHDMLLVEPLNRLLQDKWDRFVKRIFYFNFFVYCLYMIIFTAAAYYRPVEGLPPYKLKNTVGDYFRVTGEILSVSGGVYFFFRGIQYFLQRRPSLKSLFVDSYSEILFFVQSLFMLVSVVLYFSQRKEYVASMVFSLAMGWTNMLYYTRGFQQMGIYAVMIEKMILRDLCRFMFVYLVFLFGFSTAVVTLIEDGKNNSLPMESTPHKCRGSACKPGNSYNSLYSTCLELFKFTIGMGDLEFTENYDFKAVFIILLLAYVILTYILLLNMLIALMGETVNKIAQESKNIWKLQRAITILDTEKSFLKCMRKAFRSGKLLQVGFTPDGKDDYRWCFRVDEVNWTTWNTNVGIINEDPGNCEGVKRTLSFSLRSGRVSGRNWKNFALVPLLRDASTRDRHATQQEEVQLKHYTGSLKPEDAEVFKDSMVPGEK

Consider `O=C(NCc1ccc(C(F)(F)F)cc1)Nc1cccc2[nH]c(=O)[nH]c12` [Example 1, 1-(4-(trifluoromethyl)benzyl)-3-(2,3-dihydro-2-oxo-1H-benzo[d]imidazol-4-yl)urea], for which, at TRPV1 (setting [5]), the inhibition at 0.3 µM is 84%. In addition, the inhibition at 0.3 µM on TRPV1 (setting [6]) was over 80%. Also, in data set [1], the “anti-hyperalgesic activity (in words)” value is “relevant and long lasting anti-hyperalgesic activity”; the “reversal of hyperalgesia within the first 2 hours” value is reported as “at least 80%”.

As to `O=C(NCc1ccc(C(F)(F)F)cc1N1CCCC1)Nc1cccc2[nH]c(=O)[nH]c12` [Example 5, 1-(4-(trifluoromethyl)-2-(pyrrolidin-1-yl)benzyl)-3-(2,3-dihydro-2-oxo-1H-benzo[d]imidazol-4-yl)urea], the “duration of effect on CFA-induced tactile allodynia, post-treatment” value (“duration of effect” below) in data set [2] is recorded as “up to 240 min”. For the same compound, the “reversal of CFA-induced tactile allodynia” value in data set [2] worked out at 60%. The inhibition in vivo at 30 µmol/kg in data set [3] came out at 53%. Also, the inhibition at 0.3 µM at TRPV1 (setting [7]) is about 100%; at TRPV1 (setting [5]), 100%; on TRPV1 (setting [6]), over 80%. For the same compound, the IC50 on TRPV1 (setting [8]) and on TRPV1 (setting [9]) was 1 nM in each case. Moreover, in data set [1], the “anti-hyperalgesic activity (in words)” value is “relevant and long lasting anti-hyperalgesic activity”. Also, the “reversal of hyperalgesia within the first 2 hours” value in data set [1] was “at least 80%”.

Consider `O=C(NCc1ccc(C(F)(F)F)cc1N1CCCCC1)Nc1cccc2[nH]c(=O)[nH]c12` [Example 6, 1-(4-(trifluoromethyl)-2-(piperidin-1-yl)benzyl)-3-(2,3-dihydro-2-oxo-1H-benzo[d]imidazol-4-yl)urea], for which the figures for the inhibition at 0.3 µM at TRPV1 (setting [7]), at TRPV1 (setting [5]) and at TRPV1 (setting [6]) were about 100%, 95% and over 80%, respectively. In addition, the IC50 on TRPV1 (setting [8]) and at TRPV1 (setting [9]) was 0.51 nM each time. Moreover, the “anti-hyperalgesic activity (in words)” value in data set [1] was “relevant and long lasting anti-hyperalgesic activity”. Also, the “reversal of hyperalgesia within the first 2 hours” value in data set [1] was “at least 80%”.

For the compound `O=C(NCc1ccc(Cl)cc1N1CCCC1)Nc1cccc2[nH]c(=O)[nH]c12` [Example 12, 1-(4-chloro-2-(pyrrolidin-1-yl)benzyl)-3-(2,3-dihydro-2-oxo-1H-benzo[d]imidazol-4-yl)urea], in data set [2], the “duration of effect” value is on record as “up to 300 min”. The “reversal of CFA-induced tactile allodynia” value in data set [2] is listed as 62%. Besides, in data set [3], the inhibition in vivo at 30 µmol/kg came to 65%. Further, the inhibition at 0.3 µM at TRPV1 (setting [5]) was 88%; on TRPV1 (setting [6]), over 80%. Besides, the IC50 on TRPV1 (setting [8]) and at TRPV1 (setting [9]) was 6 nM throughout.

Turning to `O=C(NCc1ccc(Cl)cc1N1CCCCC1)Nc1cccc2[nH]c(=O)[nH]c12` [Example 13, 1-(4-chloro-2-(piperidin-1-yl)benzyl)-3-(2,3-dihydro-2-oxo-1H-benzo[d]imidazol-4-yl)urea], in data set [3], the inhibition in vivo at 30 µmol/kg stood at 60%. For the same compound, the inhibition at 0.3 µM at TRPV1 (setting [7]) was about 100%; at TRPV1 (setting [5]), 96%; on TRPV1 (setting [6]) it was over 80%. The 50% inhibitory concentration (IC50) at TRPV1 (setting [8]) and at TRPV1 (setting [9]) was 1.8 nM each time. In data set [1], the “anti-hyperalgesic activity (in words)” value is “relevant and long lasting anti-hyperalgesic activity”. Moreover, in data set [1], the “reversal of hyperalgesia within the first 2 hours” value is listed as “at least 80%”.

Turning to `O=C(NCc1ccc(C(F)(F)F)o1)Nc1cccc2[nH]c(=O)[nH]c12` [Example 23, 1-(5-(trifluoromethyl-furan-2-yl)-methyl)-3-(2,3-dihydro-2-oxo-1H-benzo[d]imidazol-4-yl)urea], in data set [3], the inhibition in vivo at 30 µmol/kg came to 46%. Moreover, the inhibition at 0.3 µM was 82% at TRPV1 (setting [5]) and over 80% at TRPV1 (setting [6]). In addition, on TRPV1 (setting [8]), the half-maximal inhibitory concentration (IC50) was 108 nM.

Take `O=C(NCc1ccc(C(F)(F)F)cc1N1CCCCC1)Nc1cccc2oc(=O)[nH]c12` [Example 31, 1-(4-(trifluoromethyl)-2-(piperidin-1-yl)benzyl)-3-(2,3-dihydro-2-oxobenzo[d]oxazol-4-yl)urea]: in data set [3], the inhibition in vivo at 30 µmol/kg turned out to be 47%. Further, the inhibition at 0.3 µM at TRPV1 (setting [7]) was about 100%; on TRPV1 (setting [5]), 100%; at TRPV1 (setting [6]), over 80%. The IC50 at TRPV1 (setting [8]) and on TRPV1 (setting [9]) was 1.9 nM in each case. Also, the “anti-hyperalgesic activity (in words)” value in data set [1] was “relevant and long lasting anti-hyperalgesic activity”. Besides, the “reversal of hyperalgesia within the first 2 hours” value in data set [1] is “at least 80%”. Further, the “effect on rectal body temperature” value in data set [4] was −1.5 °C.

For the compound `O=C1COc2c(cccc2NC(=O)NCc2ccc(C(F)(F)F)cc2N2CCCC2)N1` [Example 47, 1-(4-(trifluoromethyl)-2-(pyrrolidin-1-yl)benzyl)-3-(3,4-dihydro-3-oxo-2H-benzo[b][1,4]oxazin-8-yl)urea], the inhibition in vivo at 30 µmol/kg in data set [3] was determined as 46%. Besides, the inhibition at 0.3 µM on TRPV1 (setting [7]) is about 100%; at TRPV1 (setting [5]), 100%; on TRPV1 (setting [6]) it was over 80%. The IC50 on TRPV1 (setting [8]) and on TRPV1 (setting [9]) was 0.7 nM in each case.

For the compound `O=C1COc2c(cccc2NC(=O)NCc2ccc(C(F)(F)F)cc2N2CCCCC2)N1` [Example 48, 1-(4-(trifluoromethyl)-2-(piperidin-1-yl)benzyl)-3-(3,4-dihydro-3-oxo-2H-benzo[b][1,4]oxazin-8-yl)urea], the inhibition in vivo at 30 µmol/kg in data set [3] came to 45%. Further, the inhibition at 0.3 µM at TRPV1 (setting [7]) is about 100%; on TRPV1 (setting [5]), 100%; on TRPV1 (setting [6]), over 80%. Further, the IC50 on TRPV1 (setting [8]) and on TRPV1 (setting [9]) was 0.13 nM each time.

For the compound `O=C1COc2c(cccc2NC(=O)NCc2ccc(Cl)cc2)N1` [Example 49, 1-(4-chlorobenzyl)-3-(3,4-dihydro-3-oxo-2H-benzo[b][1,4]oxazin-8-yl)urea], the “reversal of CFA-induced tactile allodynia” value in data set [2] turned out to be 72%. Further, the inhibition in vivo at 30 µmol/kg in data set [3] is 52%. In addition, at TRPV1 (setting [5]), the inhibition at 0.3 µM was 68%. In data set [1], the “anti-hyperalgesic activity (in words)” value is “relevant and long lasting anti-hyperalgesic activity”; the “reversal of hyperalgesia within the first 2 hours” value is “at least 80%”.

For `O=C1COc2c(cccc2NC(=O)NCc2ccc(Cl)cc2N2CCCC2)N1` [Example 51, 1-(4-chloro-2-(pyrrolidin-1-yl)benzyl)-3-(3,4-dihydro-3-oxo-2H-benzo[b][1,4]oxazin-8-yl)urea], the “duration of effect” value in data set [2] is “shorter duration”. Further, the “reversal of CFA-induced tactile allodynia” value in data set [2] came out at 61%. Besides, the inhibition in vivo at 30 µmol/kg in data set [3] came out at 30%. For the same compound, the inhibition at 0.3 µM at TRPV1 (setting [7]) is about 100%; on TRPV1 (setting [5]) it was 100%; on TRPV1 (setting [6]), over 80%. For the same compound, the IC50 on TRPV1 (setting [8]) worked out at 0.1 nM; at TRPV1 (setting [9]) it was 1.8 nM.

On to `CN(C)CCOc1cc(C(F)(F)F)ccc1CNC(=O)Nc1cccc2c1OCC(=O)N2` [Example 92, 1-[[2-(2-dimethylaminoethoxy)-4-(trifluoromethyl)phenyl]methyl]-3-(3-oxo-4H-1,4-benzoxazin-8-yl)urea], for which, on TRPV1 (setting [5]), the inhibition at 0.3 µM was 12%.
